The target in one experiment is T1, human EP4 receptor (Homo sapiens, UniProt P35408).
T1 construct: expressed in transfected cells
Nature of the experiment: AlphaScreen cAMP functional assay, PGE2-stimulated HEK293 membranes. Format: biochemical. The protocol: In studies of CR6086 as a functional receptor antagonist, we took advantage of the evidence that activated EP4 receptors couple with Gs proteins to stimulate adenylyl cyclase and increase cyclic adenosine monophosphate (cAMP) cellular levels. Cell membranes prepared from the HEK293 cell line were suspended in 1 ml of stimulation buffer (Hanks’ balanced salt solution 1× + BSA 0.1% + 3-isobutyl-1-methylxanthine 0.5 mM + HEPES 5 mM + MgCl2 10 mM + guanosine triphosphate 1 nM + guanosine diphosphate 10 μM + adenosine triphosphate 100 μM, pH 7.4). The AlphaScreen cAMP functional assay (PerkinElmer) was used according to the manufacturer’s instructions. Because AlphaScreen beads are light-sensitive, the cAMP assay was performed under subdued laboratory lighting, and any incubation involving the beads was carried out in the dark. The assay is based on the competition between endogenous cAMP and exogenously added biotinylated cAMP. The capture of cAMP is achieved by using a specific antibody conjugated to […]. Cell membranes were dispensed into white 384-well microplates at a final concentration of 1 μg per well. […] After 1 h of incubation, the plate was read using the EnVision platform (PerkinElmer) to determine the cAMP level (excitation 680 nm, emission 520 or 620 nm). […]
Background: Bead proximity is the source of the signal in Alpha formats.

In another experiment the test system is IL-17 release. Description: IL-17 release from human Th17 cells. Format: cell-based. Conditions: Homo sapiens; at 1 μM; 48 and 72 h. The protocol: PBMCs were purified using Histopaque. CD4^+CD45^+ naive T cells were indirectly selected in a magnetic field (MACS; Miltenyi Biotec). Purified CD4^+ cells were subsequently cultured for 7 days in differentiation medium (RPMI 1640 + FBS 10%, IL-6 30 ng/ml, transforming growth factor [TGF]-β 2.25 ng/ml, IL-23 30 ng/ml, IL-1β 20 ng/ml, anti-interferon (IFN)-γ 1 ng/ml and anti-IL-4 2.5 ng/ml). Th17 cell expansion was stimulated by addition of anti-CD3/[…]anti-CD28 beads to the medium with a cell-to-beads ratio of 1:2. Th17 cells were stimulated with IL-6 30 ng/ml, TGF-β 2.25 ng/ml, IL-23 30 ng/ml, IL-1β 20 ng/ml and PGE2 10 nM for 48 h in the presence of CR6086 (0.03–10 μM) or naproxen (1–10 μM). IL-17 release was measured by ELISA (Abcam, Cambridge, UK).

Experiment [1] concerns arthritic mice (collagen-induced arthritis model). Description: Serum anti-bCII IgG antibodies (ELISA), CIA mice third study. The format is in vivo, mouse. As to conditions: 30 mg/kg CR6086, end of treatment. The method, then:
In a third study, mice were randomised into the following treatment groups: naive, vehicle, 30 mg/kg CR6086, 1 or 3 mg/kg MTX, with the latter administered alone or in combination with 30 mg/kg CR6086. CR6086 was administered orally once daily. MTX was administered intraperitoneally three times per week (every third day). Mice were treated with test drugs for 16 days.
At the end of the treatment period, animals were killed, and their paws were explanted and processed for histology. In the third study, the serum concentrations of immunoglobulin G (IgG) antibodies against bCII were measured by ELISA (catalogue number 2032; Chondrex, Redmond, WA, USA).
A general note: An ELISA detects its analyte on a solid surface through an enzyme-linked reagent.

The target of a further experiment is T2, COX-1 (Homo sapiens, UniProt P23219).
T2 construct: host or cells: Sf9 cells
Description: Cyclooxygenase COX-1 enzymatic activity. The format is biochemical. As to conditions: Sf9 cells, read-out: CR6086 Activity at 10µM.

In another experiment the target is A2A (Homo sapiens, UniProt P29274). Nature of the experiment: Adenosine receptor A2A binding. Conditions: [^3H]CGS 21680, Human recombinant HEK-293 cells.
A2A, sequence (P29274 whole entry): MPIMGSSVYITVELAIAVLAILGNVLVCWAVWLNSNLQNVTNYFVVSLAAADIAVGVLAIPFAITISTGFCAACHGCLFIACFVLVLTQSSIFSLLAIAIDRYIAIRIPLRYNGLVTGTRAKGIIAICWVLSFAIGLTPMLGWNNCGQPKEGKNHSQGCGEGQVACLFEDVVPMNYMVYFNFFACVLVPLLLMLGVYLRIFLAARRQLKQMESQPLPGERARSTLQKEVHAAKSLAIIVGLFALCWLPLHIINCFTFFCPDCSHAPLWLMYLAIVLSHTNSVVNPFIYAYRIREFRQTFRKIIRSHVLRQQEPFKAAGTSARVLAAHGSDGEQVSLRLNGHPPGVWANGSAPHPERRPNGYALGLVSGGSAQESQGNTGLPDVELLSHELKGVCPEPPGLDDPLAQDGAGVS
Another experiment concerns the target β1 (Homo sapiens, UniProt P08588). Nature of the experiment: Adrenergic receptor β1 binding. As to conditions: [^3H](-)CGP 12177, Human recombinant HEK-293 cells, read-out: CR6086 Activity at 10µM.
In another experiment the target is CB1 (Homo sapiens, UniProt P21554). Description: Cannabinoid receptor CB1 binding. As to conditions: [^3H]CP 55940, Human recombinant CHO cells, read-out: CR6086 Activity at 10µM.
CB1, sequence (P21554 whole entry): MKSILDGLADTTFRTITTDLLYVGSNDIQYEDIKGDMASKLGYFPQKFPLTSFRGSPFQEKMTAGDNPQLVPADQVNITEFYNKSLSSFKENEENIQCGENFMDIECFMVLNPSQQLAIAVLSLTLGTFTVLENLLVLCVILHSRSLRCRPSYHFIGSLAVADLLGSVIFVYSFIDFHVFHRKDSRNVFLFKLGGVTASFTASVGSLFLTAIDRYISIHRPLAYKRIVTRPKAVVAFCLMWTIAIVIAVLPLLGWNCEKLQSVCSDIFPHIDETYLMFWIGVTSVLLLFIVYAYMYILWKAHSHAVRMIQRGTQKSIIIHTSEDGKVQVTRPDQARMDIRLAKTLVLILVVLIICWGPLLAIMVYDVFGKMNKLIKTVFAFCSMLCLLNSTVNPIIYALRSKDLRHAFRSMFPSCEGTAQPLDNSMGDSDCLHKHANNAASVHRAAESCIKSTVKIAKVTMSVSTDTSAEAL
The target in a further experiment is D5 (Homo sapiens, UniProt P21918). Nature of the experiment: Dopamine receptor D5 binding. Conditions: [^3H]SCH 23390, Human recombinant GH4 cells, read-out: CR6086 Activity at 10µM.
D5, sequence (P21918 whole entry): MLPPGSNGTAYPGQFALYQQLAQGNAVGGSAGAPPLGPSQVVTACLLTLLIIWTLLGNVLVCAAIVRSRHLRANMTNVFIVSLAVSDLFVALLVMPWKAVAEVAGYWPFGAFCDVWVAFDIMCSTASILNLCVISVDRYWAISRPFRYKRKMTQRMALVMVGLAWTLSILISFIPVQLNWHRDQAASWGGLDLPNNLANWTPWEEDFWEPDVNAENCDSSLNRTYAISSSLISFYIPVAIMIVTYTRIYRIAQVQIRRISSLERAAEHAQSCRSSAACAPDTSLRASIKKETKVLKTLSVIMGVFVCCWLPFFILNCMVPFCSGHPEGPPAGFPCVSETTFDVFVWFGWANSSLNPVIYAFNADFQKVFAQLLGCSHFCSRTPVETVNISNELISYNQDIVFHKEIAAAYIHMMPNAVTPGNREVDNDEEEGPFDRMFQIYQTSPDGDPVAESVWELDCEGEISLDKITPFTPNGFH
The target of another experiment is 5-HT1B (Rattus norvegicus, UniProt P28564). Description: Serotonin receptor 5-HT1B binding. Conditions: [^125I]CYP (+30µM isoproterenol), Rat cerebral cortex, read-out: CR6086 Activity at 10µM.
5-HT1B, sequence (P28564 whole entry): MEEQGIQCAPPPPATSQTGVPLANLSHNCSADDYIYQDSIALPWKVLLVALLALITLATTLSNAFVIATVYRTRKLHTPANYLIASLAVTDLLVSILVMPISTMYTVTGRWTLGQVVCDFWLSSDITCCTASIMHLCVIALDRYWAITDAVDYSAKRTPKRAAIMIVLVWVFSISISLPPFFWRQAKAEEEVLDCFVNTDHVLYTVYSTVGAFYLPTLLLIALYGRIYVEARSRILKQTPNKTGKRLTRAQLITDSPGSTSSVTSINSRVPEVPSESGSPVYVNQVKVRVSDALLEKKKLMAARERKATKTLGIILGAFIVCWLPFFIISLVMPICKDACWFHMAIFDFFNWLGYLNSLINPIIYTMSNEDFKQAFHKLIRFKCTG
In a further experiment the test system is σ (non-selective). Description: σ receptor (non-selective) binding. As to conditions: [^3H]DTG, Rat cerebral cortex.
A further experiment addresses Y1 (Homo sapiens, UniProt P25929). Nature of the experiment: Neuropeptide Y receptor Y1 binding. Conditions: [^125I]peptide YY, SK-N-MC cells (endogenous), read-out: CR6086 Activity at 10µM.
The next experiment concerns the target δ2 (DOP) (Homo sapiens, UniProt P41143). Nature of the experiment: Opioid receptor δ2 (DOP) binding. Conditions: [^3H]DADLE, Human recombinant CHO cells, read-out: CR6086 Activity at 10µM.
The target of a further experiment is µ (MOP) (Homo sapiens, UniProt P35372). Description: Opioid receptor µ (MOP) binding. Conditions: [^3H]DAMGO, Human recombinant HEK-293 cells, read-out: CR6086 Activity at 10µM.
µ (MOP), sequence (P35372 whole entry): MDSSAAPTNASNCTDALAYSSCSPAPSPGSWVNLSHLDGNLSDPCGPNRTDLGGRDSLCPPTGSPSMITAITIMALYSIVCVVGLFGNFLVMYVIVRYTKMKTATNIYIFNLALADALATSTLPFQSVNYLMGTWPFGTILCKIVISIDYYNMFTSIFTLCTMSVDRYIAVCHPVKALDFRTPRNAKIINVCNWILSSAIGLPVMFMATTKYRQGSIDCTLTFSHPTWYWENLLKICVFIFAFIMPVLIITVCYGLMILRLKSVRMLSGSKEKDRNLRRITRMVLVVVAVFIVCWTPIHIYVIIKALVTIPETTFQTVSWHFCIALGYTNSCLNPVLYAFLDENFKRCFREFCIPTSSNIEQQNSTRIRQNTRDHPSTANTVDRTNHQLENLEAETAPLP
The target of a further experiment is CCR1 (Homo sapiens, UniProt P32246). Description: CCR1 receptor binding. Conditions: [^125I]MIP-1α, Human recombinant HEK-293 cells, read-out: CR6086 Activity at 10µM.
The target in a further experiment is GR (Homo sapiens, UniProt P04150). Nature of the experiment: Nuclear receptor GR binding. As to conditions: [^3H]dexamethasone, IM-9 cells (cytosol), read-out: CR6086 Activity at 10µM.
GR, sequence (P04150 whole entry): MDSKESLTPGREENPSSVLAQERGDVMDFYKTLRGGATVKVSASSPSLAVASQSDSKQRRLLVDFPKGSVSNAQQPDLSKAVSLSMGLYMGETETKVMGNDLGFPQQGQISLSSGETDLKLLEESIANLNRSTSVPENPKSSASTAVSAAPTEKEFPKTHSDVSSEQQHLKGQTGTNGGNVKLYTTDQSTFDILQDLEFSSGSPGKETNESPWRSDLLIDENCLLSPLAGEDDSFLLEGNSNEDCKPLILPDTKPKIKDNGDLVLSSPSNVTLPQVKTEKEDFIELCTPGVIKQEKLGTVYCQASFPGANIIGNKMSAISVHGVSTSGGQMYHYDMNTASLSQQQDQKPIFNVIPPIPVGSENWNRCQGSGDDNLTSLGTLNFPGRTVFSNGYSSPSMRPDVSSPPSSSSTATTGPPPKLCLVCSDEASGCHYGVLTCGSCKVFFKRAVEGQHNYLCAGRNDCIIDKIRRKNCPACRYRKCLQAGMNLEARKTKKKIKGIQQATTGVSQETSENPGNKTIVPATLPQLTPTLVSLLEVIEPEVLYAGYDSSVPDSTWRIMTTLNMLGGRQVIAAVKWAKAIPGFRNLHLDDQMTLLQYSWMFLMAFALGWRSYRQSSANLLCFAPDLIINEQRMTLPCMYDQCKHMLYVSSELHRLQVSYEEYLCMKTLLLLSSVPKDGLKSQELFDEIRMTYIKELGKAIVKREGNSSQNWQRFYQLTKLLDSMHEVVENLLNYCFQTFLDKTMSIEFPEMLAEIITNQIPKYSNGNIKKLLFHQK
The subject of another experiment is Kv channel. Nature of the experiment: Ion channel Kv binding. As to conditions: [^125I]α-dendrotoxin, Rat cerebral cortex.

T1 sequence (P35408 whole entry): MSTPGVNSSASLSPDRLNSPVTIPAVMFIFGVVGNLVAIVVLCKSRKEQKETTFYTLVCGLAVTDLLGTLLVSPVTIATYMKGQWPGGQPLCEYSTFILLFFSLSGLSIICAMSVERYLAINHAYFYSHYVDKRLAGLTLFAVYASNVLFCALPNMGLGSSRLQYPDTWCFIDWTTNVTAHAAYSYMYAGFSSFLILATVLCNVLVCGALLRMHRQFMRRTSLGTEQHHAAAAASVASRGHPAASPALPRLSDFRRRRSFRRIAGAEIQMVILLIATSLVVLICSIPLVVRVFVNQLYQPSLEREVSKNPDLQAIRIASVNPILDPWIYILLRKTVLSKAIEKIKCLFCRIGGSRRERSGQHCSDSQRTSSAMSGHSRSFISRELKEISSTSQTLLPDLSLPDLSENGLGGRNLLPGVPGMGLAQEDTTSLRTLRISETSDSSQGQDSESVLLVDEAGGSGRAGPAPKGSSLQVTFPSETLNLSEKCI
Y1, sequence (P25929 whole entry): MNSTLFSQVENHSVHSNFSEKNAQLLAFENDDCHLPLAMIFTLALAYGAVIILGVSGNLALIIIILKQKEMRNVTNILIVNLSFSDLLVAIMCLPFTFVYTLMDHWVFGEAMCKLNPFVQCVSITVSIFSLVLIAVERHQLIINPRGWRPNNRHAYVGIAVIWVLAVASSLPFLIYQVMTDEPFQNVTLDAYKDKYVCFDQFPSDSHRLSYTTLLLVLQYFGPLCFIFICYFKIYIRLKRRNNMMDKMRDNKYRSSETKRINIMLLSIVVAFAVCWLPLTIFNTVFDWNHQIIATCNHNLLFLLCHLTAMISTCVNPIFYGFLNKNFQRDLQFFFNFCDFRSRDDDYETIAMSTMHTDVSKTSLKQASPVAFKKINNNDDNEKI
δ2 (DOP), sequence (P41143 whole entry): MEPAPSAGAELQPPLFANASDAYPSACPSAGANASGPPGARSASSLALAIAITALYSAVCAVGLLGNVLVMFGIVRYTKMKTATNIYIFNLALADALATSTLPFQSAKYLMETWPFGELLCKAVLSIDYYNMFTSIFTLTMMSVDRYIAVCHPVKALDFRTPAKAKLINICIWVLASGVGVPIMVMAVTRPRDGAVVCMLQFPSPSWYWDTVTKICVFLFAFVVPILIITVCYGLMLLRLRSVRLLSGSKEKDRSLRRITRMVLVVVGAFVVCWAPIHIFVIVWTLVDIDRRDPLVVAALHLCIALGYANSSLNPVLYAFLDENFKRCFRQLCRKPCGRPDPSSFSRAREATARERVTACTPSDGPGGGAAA
β1, sequence (P08588 whole entry): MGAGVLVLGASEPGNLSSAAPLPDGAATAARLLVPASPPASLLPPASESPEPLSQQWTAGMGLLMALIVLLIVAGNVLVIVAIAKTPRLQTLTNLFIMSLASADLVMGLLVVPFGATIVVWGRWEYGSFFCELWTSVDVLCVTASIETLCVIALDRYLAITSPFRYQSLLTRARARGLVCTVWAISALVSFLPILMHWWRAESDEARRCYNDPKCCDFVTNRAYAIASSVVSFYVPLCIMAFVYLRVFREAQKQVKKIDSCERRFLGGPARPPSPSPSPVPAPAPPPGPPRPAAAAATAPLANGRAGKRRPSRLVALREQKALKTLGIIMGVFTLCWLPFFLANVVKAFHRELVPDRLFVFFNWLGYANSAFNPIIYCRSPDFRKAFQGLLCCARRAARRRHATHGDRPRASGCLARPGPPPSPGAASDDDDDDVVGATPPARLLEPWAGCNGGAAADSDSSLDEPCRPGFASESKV

Turning to `O=C([O-])c1ccc(C2(NC(=O)[C@H]3CC4(CCN3Cc3ccc(C(F)(F)F)cc3)CC4)CC2)cc1.[Na+]` [CR6086, Sodium (R)-4-(1-(6-(4-(trifluoromethyl)benzyl)-6-azaspiro[2.5]octane-5-carboxamido)cyclopropyl)benzoate], the IC50 at human EP4 receptor (3 nM PGE2, HEK293 membranes, read-out: IC50 on PGE2-stimulated cAMP production) was determined as 0.022 µM. Besides, the functional behaviour result on human EP4 receptor (cAMP functional assays) is reported as “pure EP4 antagonist”. Moreover, the inhibition at 1 µM in the experiment on IL-17 release is 100%. Moreover, the “Anti-collagen II” value in experiment [1] was 324.91 ± 79.82 µg/mL. Further, the inhibition at 10 µM at COX-1, on β1, at CB1, at D5, at 5-HT1B and at Y1 was < 20% each time. For the same compound, the inhibition at 10 µM at δ2 (DOP), at µ (MOP), at CCR1 and on GR was < 20% each time. For the same compound, the “CR6086 Activity at 10µM” value at A2A, with σ (non-selective) and in the experiment with Kv channel was “IN (IN = < 20% displacement or inhibition (all tables))” throughout.

One may read the IC50 as the concentration that gives 50% inhibition.

(Values after publication PMC5831858, “Pharmacological characterisation of CR6086, a potent prostaglandin E2 receptor 4 antagonist, as a new potential disease-modifying anti-rheumatic drug” (Arthritis Research & Therapy, 2018).)
